One compound from patent US10842878B2, “Degradation of Bruton's tyrosine kinase (BTK) by conjugation of BTK inhibitors with E3 ligase ligand and methods of use” (Dana-Farber Cancer Institute, Inc., priority 2016, dated 2020) can be followed below.

SMILES strings stand for the structures.

For this test, the target named is T1, BTK (Homo sapiens, UniProt Q06187).
T1 construct: protein lysate harvest and Western blotting analysis of BTK, Aurora A, and α-tubulin levels; endogenous in cells; host or cells: MOLM14 cells
T1 sequence (Q06187 whole entry): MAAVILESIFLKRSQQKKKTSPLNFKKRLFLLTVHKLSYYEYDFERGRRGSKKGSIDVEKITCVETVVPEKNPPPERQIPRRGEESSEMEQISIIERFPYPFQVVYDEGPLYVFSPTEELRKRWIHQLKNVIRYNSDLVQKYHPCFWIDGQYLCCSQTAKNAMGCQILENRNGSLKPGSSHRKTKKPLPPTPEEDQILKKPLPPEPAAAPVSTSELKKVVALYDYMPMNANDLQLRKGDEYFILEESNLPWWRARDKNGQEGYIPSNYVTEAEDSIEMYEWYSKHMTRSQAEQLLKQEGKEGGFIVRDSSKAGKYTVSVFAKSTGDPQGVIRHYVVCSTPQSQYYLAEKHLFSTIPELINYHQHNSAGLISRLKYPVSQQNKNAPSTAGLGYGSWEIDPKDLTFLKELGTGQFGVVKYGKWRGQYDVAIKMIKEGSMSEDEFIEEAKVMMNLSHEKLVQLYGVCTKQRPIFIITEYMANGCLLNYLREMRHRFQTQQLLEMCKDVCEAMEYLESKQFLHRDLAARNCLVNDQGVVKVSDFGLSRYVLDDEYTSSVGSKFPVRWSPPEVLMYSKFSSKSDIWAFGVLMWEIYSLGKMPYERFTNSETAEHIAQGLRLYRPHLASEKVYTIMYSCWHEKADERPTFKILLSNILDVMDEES
The test is described as follows: Cell assay and Western blotting analysis of BTK levels in MOLM14 cells. It counts as cell-based. The following applies: MOLM14 cells treated with 40 nM, 200 nM, 1 μM for 4 or 12 hours (FIG. 1: 4 hours); DMSO control; Aurora A and α-tubulin also blotted. As to the method: MOLM14 cells were treated with DMSO or with 40 nM, 200 nM, 1 μM of a BTK bifunctional inhibitor compound of the disclosure for 4 or 12 hours, followed by protein lysate harvest and Western blotting analysis of BTK, Aurora A, and α-tubulin levels.
Cells are lysed using RIPA buffer supplemented with protease inhibitor cocktail (Roche) and phosSTOP phosphatase inhibitor cocktail (Roche) on ice for 15 minutes. The lysates are spun at 20,000×g for 15 minutes on 4° C. and protein concentration is determined using BCA assay (Pierce). The following primary antibodies are used in this study: BTK, GADPH, tubulin and Aurora A kinase (all from Cell Signaling Technology). Blots are imaged using fluorescence-labeled secondary antibodies (LI-COR) on the OdysseyCLxImager (LI-COR). Quantification of band intensities is performed using OdysseyCLx software (LI-COR).

In the case of `Cc1c(NC(=O)c2ccc(C(C)(C)C)cc2)cccc1-c1cn(C)c(=O)c(Nc2ccc(C(=O)N3CCN(CCOCCOCCNC(=O)CNc4cccc5c4C(=O)N(C4CCC(=O)NC4=O)C5=O)CC3)cc2)n1` (stereo not shown) [Compound I-5, 4-(tert-butyl)-N-(3-(6-((4-(4-(2-(2-(2-(2-((2-(2,6-dioxopiperidin-3-yl)-1,3-dioxoisoindolin-4-yl)amino)acetamido)ethoxy)ethoxy)ethyl)piperazine-1-carbonyl)phenyl)amino)-4-methyl-5-oxo-4,5-dihydropyrazin-2-yl)-2-methylphenyl)benzamide], the “BTK degradation (Western blotting analysis of BTK levels)” value is reported as “showed BTK degradation”.
